Legend:
[1] = system: IKZF2 (Helios); test: IKZF2 reporter degradation assay (HEK 293T IKZF2-mNeonGreen reporter cell line); type: cell-based, human; conditions: 1 μM compound, 24 hour incubation, HEK 293T IKZF2-mNeonGreen reporter
Excerpt: Polycistronic plasmids were constructed for the mammalian expression of fluorescent reporter fusions of human transcription factors IKZF1 (Ikaros), IKZF2 (Helios), and IKZF3 (Aiolos). The respective protein sequences had their C-terminal end joined to a GGGGS linker repeated three times followed by mNeonGreen, P2A sequence, and mScarlet. The DNA sequences of the open reading frames are as follows:
IKZF1, IKZF2, and IKZF3 constructs were cloned into the UCOE Hygromycin expression vectors (Millipore Sigma). Reporter constructs were transfected using cationic lipid reagents into adherent HEK 293T cells and stable integrants were selected by treatment with 200 μg/mL hygromycin B. Clonal populations were obtained from the population of stable integrants either by limiting dilution or fluorescence activated cell sorting.
The clonal stable cell lines were maintained under constant 200 μg/mL hygromycin B selection while being passaged for use in the degradation assays. […] The fluorescence intensity of the IKZF1/2/3-mNeonGreen (FITC channel) and mScarlet (PE channel) reporters were routinely analyzed by flow cytometry to confirm consistent expression levels between experiments.
The IKZF1/IKZF2/IKZF3 degradation assays were carried out by harvesting the HEK 293T reporter cell lines and resuspending the cells in media formulated for reduced background fluorescence (FluoroBrite; Thermo Fisher). The respective cell lines were seeded at a density of 4000 cells/well into black-walled 384-well optical grade assay tissue culture plates. The cells were incubated overnight at 37° C. to allow for attachment to the assay plate. Dilutions of the compounds were prepared in DMSO from 10 mM compound stocks. The assay plates were treated with appropriate concentrations of the compounds by dispensing the DMSO dilutions in quadruplicate wells with an upper limit of 0.5% final DMSO.
After 24 hour incubation with the compounds, the assay plates were imaged on an ImageXpress Pico microscopy system (cells maintained at 37° C. during imaging) to obtain the fluorescent readouts. The assay plates were imaged in the FITC and Tetramethylrhodamine (TRITC) channels to obtain the mNeonGreen fluorescence intensity (reporter degradation data) and mScarlet fluorescence intensity (for cell segmentation). 293T-IKZF1 and 293T-IKZF3 reporter cell lines were imaged with exposures of 500 milliseconds (ms) for both FITC and TRITC channels, while the 293T-IKZF2 reporter cell line was imaged with exposures of 1000 ms for FITC and 1250 ms for TRITC. The resulting data was analyzed with Cell Reporter Xpress software using the 2-channel cell scoring analysis with a “percent positive” readout. The TRITC channel was selected for the “nuclei” segmentation with a threshold of 20 while the FITC channel was selected for the “Marker 1” segmentation and a threshold of 100 for the IKZF1 and IKZF3 reporter lines. […] The minimum segmentation width was set to 6 micrometers and the maximum segmentation width was set to 15 micrometers for all cell lines. The DCs calculations were determined by regression to best fit four-parameter logistic curves using GraphPad Prism.

[2] = molecular target: human E3 ligase component cereblon (CRBN) (Homo sapiens (Human), UniProt Q96SW2); test: Cereblon (CRBN) target engagement, NanoBRET TE Intracellular E3 Ligase Assay in transfected HEK-293T cells; conditions: read-out: CRBN Binding EC50
Method: HEK293T cells were harvested ca. 75% confluent with trypsin and plated (500,000 cells/well) in a 6-well tissue culture plate in 2 mL of Dulbecco's Modified Eagle Medium (DMEM)+10% Fetal Bovine Serum (FBS) and incubated overnight at 37° C.
The NanoLuc-CRBN fusion vector (Nluc-CRBN; Promega) contains the coding region of human E3 ligase component cereblon (CRBN) fused to the C-terminus of the NanoLuc luciferase coding region. A mixture of 10 ng Nluc-CRBN and 990 ng DDB1 Expression Vector (Promega) was added to 125 μL Opti-Minimum Essential Medium (Opti-MEM™; Thermo Fisher) along with 2 μL P3000 reagent (Thermo Fisher) in a 1.5 mL epppendorf tube. This solution was added to Lipofectamine 3000 transfection reagent (5 μL; Thermo Fisher) in Opti-MEM (125 μL), mixed well, and incubated for 15 minutes at room temperature. The transfection mixture was added dropwise to cells and incubated overnight at 37° ° C., 5% CO2. Following transfection, cells were washed once with PBS, and trypsin (250 μL) was added and incubated 30-45 sec to dislodge cells. Complete media (2 mL) was added to resuspend cells to form a single cell suspension. Cells were centrifuged at 320×g for 5 min at room temperature, the supernatant was removed, and the cell pellet resuspended in Opti-MEM (3 mL; wash step repeated×2). After final resuspension in 5 mL Opti-MEM, cells were counted and resuspended at 200,000 cells/mL in Opti-MEM.
Cereblon target engagement was monitored by Bioluminescence Resonance Energy Transfer (BRET) in transfected HEK-293T cells using the NanoBRET TE Intracellular E3 Ligase Assay (Promega). Briefly, 384-well plates (white opaque plates, Corning 3574, low binding surface) were seeded with transfected HEK-293T cells (38 μL/well). 2 μL of 10 μM CRBN tracer (diluted 1:5 in Tracer Dilution Buffer) was added to each well. Plates were centrifuged at 320×g for 1 min at room temperature. Test compounds were added in a 11-point dilution series (typically 10 μM to […]) using a TECAN D300e Digital Dispenser. Plates were shaken for 2 minutes on a microplate shaker to mix compounds. Plates were centrifuged at 320×g for 1 min at room temperature, and subsequently incubated for 2 hours at 37° C.
After incubation, plates were allowed to cool to room temperature for 15 minutes. 20 μL of 3× Complete NanoBRET™ Nano-Glo® Substrate plus Inhibitor Solution (Promega, 1:166 Substrate and 1:500 dilution of Extracellular NanoLuc® Inhibitor diluted in Opti-MEM) were added to each well. Plates were incubated with shaking at room temperature for 3 minutes covered with foil. Plates were read on a CLARIOstar microplate reader (BMG LabTech), measuring at 450 nm (donor emission) and 610 nm (acceptor emission). The IC50 values were determined by regression to best fit four-parameter logistic curves using GraphPad Prism.

Chain of human E3 ligase component cereblon (CRBN) (Q96SW2 whole entry): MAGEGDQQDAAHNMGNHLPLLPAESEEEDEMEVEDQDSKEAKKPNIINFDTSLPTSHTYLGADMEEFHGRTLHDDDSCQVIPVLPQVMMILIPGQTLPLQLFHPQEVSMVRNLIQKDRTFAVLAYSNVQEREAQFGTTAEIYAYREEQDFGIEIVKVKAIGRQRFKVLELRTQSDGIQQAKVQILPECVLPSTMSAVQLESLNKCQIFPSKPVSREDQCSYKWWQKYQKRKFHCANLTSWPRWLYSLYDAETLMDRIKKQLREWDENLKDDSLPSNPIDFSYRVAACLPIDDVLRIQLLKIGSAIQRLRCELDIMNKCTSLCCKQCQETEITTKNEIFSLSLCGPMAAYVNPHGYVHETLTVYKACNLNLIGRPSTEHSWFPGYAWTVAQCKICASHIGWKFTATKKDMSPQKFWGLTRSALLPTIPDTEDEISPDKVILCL
Chain of human E3 ligase component cereblon (CRBN) (Q16531 whole entry partner): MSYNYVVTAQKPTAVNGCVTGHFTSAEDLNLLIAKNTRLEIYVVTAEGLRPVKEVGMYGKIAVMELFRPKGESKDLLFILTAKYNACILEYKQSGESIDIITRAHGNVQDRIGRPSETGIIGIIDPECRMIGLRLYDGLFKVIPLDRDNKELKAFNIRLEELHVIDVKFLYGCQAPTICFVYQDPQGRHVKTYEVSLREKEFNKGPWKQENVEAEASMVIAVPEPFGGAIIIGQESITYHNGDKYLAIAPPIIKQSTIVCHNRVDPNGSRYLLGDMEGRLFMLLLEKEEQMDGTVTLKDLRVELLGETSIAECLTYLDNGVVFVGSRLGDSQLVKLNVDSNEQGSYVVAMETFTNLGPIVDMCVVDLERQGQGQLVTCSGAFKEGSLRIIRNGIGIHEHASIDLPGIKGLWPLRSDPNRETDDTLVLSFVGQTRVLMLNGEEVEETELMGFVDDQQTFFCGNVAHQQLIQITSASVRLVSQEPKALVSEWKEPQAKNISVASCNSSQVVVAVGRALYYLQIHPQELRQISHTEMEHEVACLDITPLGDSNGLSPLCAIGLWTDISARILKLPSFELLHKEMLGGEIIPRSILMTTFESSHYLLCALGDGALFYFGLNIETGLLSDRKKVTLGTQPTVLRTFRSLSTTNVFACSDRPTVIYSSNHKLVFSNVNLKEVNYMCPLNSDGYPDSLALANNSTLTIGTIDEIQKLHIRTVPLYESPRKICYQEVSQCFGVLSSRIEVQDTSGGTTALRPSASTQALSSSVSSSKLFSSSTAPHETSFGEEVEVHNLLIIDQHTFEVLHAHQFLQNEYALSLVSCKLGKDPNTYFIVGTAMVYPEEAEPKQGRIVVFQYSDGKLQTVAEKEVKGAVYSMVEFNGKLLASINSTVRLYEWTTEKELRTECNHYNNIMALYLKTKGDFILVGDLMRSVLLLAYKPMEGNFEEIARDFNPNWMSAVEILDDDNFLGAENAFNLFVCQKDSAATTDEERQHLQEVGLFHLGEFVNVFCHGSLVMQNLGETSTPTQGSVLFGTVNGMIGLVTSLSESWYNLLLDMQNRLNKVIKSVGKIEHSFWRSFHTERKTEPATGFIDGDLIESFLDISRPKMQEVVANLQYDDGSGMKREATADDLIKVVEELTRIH

| EC50 [2] [µM] | Structure (SMILES) | IKZF2 % Degradation @ 1 μM [1] [%] |
| --- | --- | --- |
| 0.026 | O=C1CCC(N2Cc3cc(OC4CCCCC4N4CC(c5ccccc5OC(F)(F)F)C4)ccc3C2=O)C(=O)N1 (stereo not shown) [Compound 68, 3-(1-oxo-5-((2-(3-(2-(trifluoromethoxy)phenyl)azetidin-1-yl)cyclohexyl)oxy)isoindolin-2-yl)piperidine-2,6-dione] | 42.5 |
| 0.037 | N#Cc1ccccc1C1CN([C@H]2CCCC[C@H]2Oc2ccc3c(c2)CN(C2CCC(=O)NC2=O)C3=O)C1 (mixture of isomers) [Compound 109, Rac-2-(1-((cis)-2-((2-(2,6-dioxopiperidin-3-yl)-1-oxoisoindolin-5-yl)oxy)cyclohexyl)azetidin-3-yl)benzonitrile] | <15 |
| 0.071 | O=C1CCC(N2Cc3cc(O[C@H]4CCCC[C@@H]4N4CC(c5ccc(C(F)(F)F)cc5)C4)ccc3C2=O)C(=O)N1 (stereo partly drawn) [Compound 58, 3-(1-oxo-5-(((1S,2S)-2-(3-(4-(trifluoromethyl)phenyl)azetidin-1-yl)cyclohexyl)oxy)isoindolin-2-yl)piperidine-2,6-dione] | 85.8 |
| 0.008 | O=C1CCC(N2Cc3cc(O[C@H]4CCCC[C@@H]4N4CC(c5cccc(OC(F)F)c5)C4)ccc3C2=O)C(=O)N1 (stereo partly drawn) [Compound 80, 3-(5-(((1S,2S)-2-(3-(3-(difluoromethoxy)phenyl)azetidin-1-yl)cyclohexyl)oxy)-1-oxoisoindolin-2-yl)piperidine-2,6-dione] | 76.7 |
| 0.012 | N#Cc1ccc(C2CN([C@@H]3CCCC[C@@H]3Oc3ccc4c(c3)CN(C3CCC(=O)NC3=O)C4=O)C2)c(F)c1 (mixture of isomers) [Compound 115, Rac-4-(1-((cis)-2-((2-(2,6-dioxopiperidin-3-yl)-1-oxoisoindolin-5-yl)oxy)cyclohexyl)azetidin-3-yl)-3-fluorobenzonitrile] | 63.6 |
| 0.013 | N#Cc1cccc(C2CN([C@H]3CCCC[C@@H]3Oc3ccc4c(c3)CN(C3CCC(=O)NC3=O)C4=O)C2)c1 (stereo partly drawn) [Compound 113, 3-(1-((1S,2S)-2-((2-(2,6-dioxopiperidin-3-yl)-1-oxoisoindolin-5-yl)oxy)cyclohexyl)azetidin-3-yl)benzonitrile] | 73.7 |

Continued, compound first:

| Structure (SMILES) | EC50 [2] [µM] | IKZF2 % Degradation @ 1 μM [1] [%] |
| --- | --- | --- |
| N#Cc1ccc(C2CN(C3CCCCC3Oc3ccc4c(c3)CN(C3CCC(=O)NC3=O)C4=O)C2)cc1 (stereo not shown) [Compound 117, 4-(1-(2-((2-(2,6-dioxopiperidin-3-yl)-1-oxoisoindolin-5-yl)oxy)cyclohexyl)azetidin-3-yl)benzonitrile] | 0.031 | <15 |
| O=C1CCC(N2Cc3c(ccc(O[C@H]4CCCC[C@@H]4N4CC(c5ccccc5)C4)c3Cl)C2=O)C(=O)N1 (single isomer, unassigned) [Compound 42] | 0.043 | <15 |
| O=C1CCC(N2Cc3cc(O[C@H]4CCCC[C@@H]4N4CC(c5ccccc5)C4)c(F)cc3C2=O)C(=O)N1 (single isomer, unassigned) [Compound 53] | 0.029 | 86.9 |
| O=C1CCC(N2Cc3cc(O[C@H]4CCC[C@@H]4N4CC(c5ccc(-n6cccn6)cc5)C4)ccc3C2=O)C(=O)N1 (stereo partly drawn) [Compound 73, 3-(5-(((1S,2S)-2-(3-(4-(1H-pyrazol-1-yl)phenyl)azetidin-1-yl)cyclopentyl)oxy)-1-oxoisoindolin-2-yl)piperidine-2,6-dione] | 0.005 | 63.6 |
| O=C1CCC(N2Cc3cc(O[C@H]4CCCC[C@@H]4N4CC(c5ccc(OC(F)F)cc5)C4)ccc3C2=O)C(=O)N1 (stereo partly drawn) [Compound 81, 3-(5-(((1S,2S)-2-(3-(4-(difluoromethoxy)phenyl)azetidin-1-yl)cyclohexyl)oxy)-1-oxoisoindolin-2-yl)piperidine-2,6-dione] | 0.009 | 77.6 |
| N#Cc1ccc(C2CN([C@H]3CCCC[C@H]3Oc3ccc4c(c3)CN(C3CCC(=O)NC3=O)C4=O)C2)c(Cl)c1 (stereo partly drawn) [Compound 49, 3-chloro-4-(1-((1S,2R)-2-((2-(2,6-dioxopiperidin-3-yl)-1-oxoisoindolin-5-yl)oxy)cyclohexyl)azetidin-3-yl)benzonitrile] | 0.011 | <15 |
| N#Cc1ccc(C2CN([C@H]3CCCC[C@@H]3Oc3ccc4c(c3)CN(C3CCC(=O)NC3=O)C4=O)C2)cc1F (mixture of isomers) [Compound 119, Rac-4-(1-((trans)-2-((2-(2,6-dioxopiperidin-3-yl)-1-oxoisoindolin-5-yl)oxy)cyclohexyl)azetidin-3-yl)-2-fluorobenzonitrile] | 0.008 | 63.8 |
| N#Cc1ccc(C2CN([C@@H]3CCCC[C@@H]3Oc3ccc4c(c3)CN(C3CCC(=O)NC3=O)C4=O)C2)cc1F (mixture of isomers) [Compound 122, rac-4-(1-((cis)-2-((2-(2,6-dioxopiperidin-3-yl)-1-oxoisoindolin-5-yl)oxy)cyclohexyl)azetidin-3-yl)-2-fluorobenzonitrile] | 0.02 | <15 |
| N#Cc1ccc(C2CN([C@H]3CCCC[C@@H]3Oc3ccc4c(c3)CN(C3CCC(=O)NC3=O)C4=O)C2)c(Cl)c1 (single isomer, unassigned) [Compound 48] | 0.045 | 78.9 |
| N#Cc1cc(Cl)ccc1C1CN([C@H]2CCC[C@H]2Oc2ccc3c(c2)CN(C2CCC(=O)NC2=O)C3=O)C1 (mixture of isomers) [Compound 84, Rac-5-chloro-2-(1-((cis)-2-((2-(2,6-dioxopiperidin-3-yl)-1-oxoisoindolin-5-yl)oxy)cyclopentyl)azetidin-3-yl)benzonitrile] | 0.014 | <15 |
| O=C1CCC(N2Cc3cc(O[C@H]4CCCC[C@@H]4N4CC(c5cccc(N6CCOCC6)c5)C4)ccc3C2=O)C(=O)N1 (stereo partly drawn) [Compound 112, 3-(5-(((1S,2S)-2-(3-(3-morpholinophenyl)azetidin-1-yl)cyclohexyl)oxy)-1-oxoisoindolin-2-yl)piperidine-2,6-dione] | 0.025 | 72.6 |

From patent US20240246935A1 (Plexium, Inc., priority 2021, published 2024)
